# According to patent US20050009797A1, “Androstane derivative having substituent in 7- abd 17--positions” (priority 2001, published 2005):
# Like-named read-outs stand apart in the source and are kept apart here.
# Tests used:
# [1] = prostate cancer patients undergoing treatment with flutamide; cited from earlier work
# [2] = biological target: androgen receptor (Homo sapiens, UniProt P10275); settings: concentration of 10 μM; cited from earlier work
# [3] = biological target: T1, human androgen receptor (Homo sapiens, UniProt P10275); experiment: Androgen receptor reporter gene assay, antagonistic effects (Example 26); type: cell-based
# T1 construct: expressed in transfected cells; host or cells: HeLa cells
# T1 sequence (P10275 1-920): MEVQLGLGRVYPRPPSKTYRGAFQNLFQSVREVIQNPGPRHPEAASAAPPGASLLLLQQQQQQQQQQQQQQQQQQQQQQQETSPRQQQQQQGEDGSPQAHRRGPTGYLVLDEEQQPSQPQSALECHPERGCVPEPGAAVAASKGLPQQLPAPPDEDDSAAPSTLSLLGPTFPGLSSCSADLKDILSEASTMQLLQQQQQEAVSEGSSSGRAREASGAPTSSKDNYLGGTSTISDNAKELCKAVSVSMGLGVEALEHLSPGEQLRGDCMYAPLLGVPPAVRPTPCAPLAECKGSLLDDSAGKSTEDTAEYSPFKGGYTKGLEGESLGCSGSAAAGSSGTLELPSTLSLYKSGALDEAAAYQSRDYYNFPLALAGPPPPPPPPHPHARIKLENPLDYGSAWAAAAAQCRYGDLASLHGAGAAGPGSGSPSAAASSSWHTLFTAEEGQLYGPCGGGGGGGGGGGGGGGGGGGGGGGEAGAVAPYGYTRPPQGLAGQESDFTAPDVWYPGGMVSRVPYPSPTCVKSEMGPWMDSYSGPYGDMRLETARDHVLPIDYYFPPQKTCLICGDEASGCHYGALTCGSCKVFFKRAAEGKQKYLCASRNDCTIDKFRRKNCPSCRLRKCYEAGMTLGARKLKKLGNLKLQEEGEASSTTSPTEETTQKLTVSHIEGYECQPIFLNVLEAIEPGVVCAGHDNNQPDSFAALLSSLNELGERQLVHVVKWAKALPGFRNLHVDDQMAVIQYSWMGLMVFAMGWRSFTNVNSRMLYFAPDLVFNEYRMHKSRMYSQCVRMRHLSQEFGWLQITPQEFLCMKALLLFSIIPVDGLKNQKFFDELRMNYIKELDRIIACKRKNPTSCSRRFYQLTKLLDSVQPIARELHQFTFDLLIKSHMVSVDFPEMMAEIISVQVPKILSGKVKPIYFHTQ
# Procedure: (§1) Twenty-four hours before transfection, 1.0×10^5 HeLa cells are cultured in a 12-well microplate containing phenol red-free DMEM/5% DCC-FBS. The HeLa cells are then transfected with 500 ng/well MMTV-Luc vector, 100 ng/well pSG5-hAR and 5 ng/well Renilla Luc vector. Transfection is carried out in phenol red-free DMEM medium using 3 μL/well lipofectamine. Nine hours after transfection, the medium is replaced by phenol red-free DMEM/3% DCC-FBS supplemented with 0.1 nmol/L DHT and 1.0 μmol/L of the compound of Formula (I) or a salt or ester thereof according to the present invention. Forty-eight hours after replacement of the medium, the transcriptional activity is determined by a Dual-Luciferase Reporter Assay System according to the following equation: (transcriptional activity)=(firefly luciferase activity)/(Renilla luciferase activity). To effect this assay, reference may be made to J. Biol. Chem., vol. 270, p.
# (§2) Twenty-four hours before transfection, 1.0×10^5 HeLa cells were cultured in a 12-well microplate containing phenol red-free DMEM/5% DCC-FBS. The HeLa cells were then transfected with 500 ng/well MMTV-Luc vector, 100 ng/well pSG5-hAR and 5 ng/well Renilla Luc vector. Transfection was carried out in phenol red-free DMEM medium using […] lipofectamine. […] Forty-eight hours after replacement of the medium, the transcriptional activity was determined by a Dual-Luciferase Reporter Assay System according to the following equation: (transcriptional activity)=(firefly luciferase activity)/(Renilla luciferase activity).
# [4] = Metabolic stability in rat liver microsome with β-NAD+ (Example 27); type: in vitro ADME; settings: 37° C.
# Procedure: A test tube containing 0.1 mol/L potassium phosphate buffer (345 μL, pH 7.4) was cooled on ice, followed by addition of 5 mg/mL rat liver microsome (50 μL), 0.1 mol/L magnesium chloride (50 μL) and a test compound dissolved in ethanol (adjusted to 1 mg/mL, 5 μL). After pre-incubation at 37° C. for 5 minutes, 10 mM β-Nicotinamide-adenine dinucleotide, oxidized form (β-NAD^+) was added to initiate the reaction. The reaction was continued at 37° C. for 0, 5 and 15 minutes, followed by addition of 0.1 mol/L hydrochloric acid (100 μL) and diethyl ether (5 mL) to stop the reaction. The reaction mixture was stirred for 10 minutes and then centrifuged at 3000 rpm for 10 minutes. The upper organic layer (4.5 mL) was transferred to another test tube, evaporated to dryness under a nitrogen stream, dissolved in 40% acetonitrile (200 μL) and then measured for the peak area of the test compound by high performance liquid chromatography. The residual percentage of the test compound at a given point in time was calculated using the following equation: Residual (%)=[(peak area of the test compound at a given time point)/(peak area of the test compound at 0 minutes)]×100
# [5] = biological target: T1, human androgen receptor; experiment: Androgen receptor reporter gene assay, agonistic effects (Example 25); type: cell-based; settings: HeLa cells transfected with MMTV-Luc and pSG5-hAR; 1-10000 nmol/L; 48 h; no DHT
# Procedure: as §1, with “cells (purchased from Dainippon Pharmaceutical Co., Ltd.)” for “cells”, “Dulbecco's Modified Eagle Medium (phenol red-free DMEM) supplemented” for “DMEM/5% DCC-FBS. The HeLa cells are then transfected”, “charcoal-treated FBS (DCC-FBS; 5%). […]” for “500 ng/well MMTV-Luc vector, 100 ng/well pSG5-hAR and 5 ng/well Renilla Luc vector.”, “lipofectamine (Gibco BRL).” for “lipofectamine.”, “10” for “0.1 nmol/L DHT and 1.0”, “System (promega)” for “System”
# as §2
# The transcriptional activity thus determined was used to calculate agonist activity according to the following equation, which in turn was used to calculate a FI5 value (i.e., a concentration at which the compound provides a 5-fold increase in transcriptional activity as compared to the value obtained in the absence of the compound). Agonist activity=(transcriptional activity in the presence of the compound)/(transcriptional activity in the absence of the compound)
# [6] = tested on: castrated rats; settings: castrated rats continuously administered for two weeks; cited from earlier work
# [7] = 50% inhibition of transcriptional activity induced by DHT (0.1 nmol/L), HeLa cells transfected with MMTV-Luc and pSG5-hAR, 48 h, read-out: IC50 value
SMILES,FI5 value (concentration giving 5-fold increase in transcriptional activity) [5],"IC50 [3, 7] [nM]",also measured
CC(C)(O)C(=O)Nc1ccc([N+](=O)[O-])c(C(F)(F)F)c1 [Hydroxyflutamide],,,blood hydroxyflutamide levels [1]: several; effect on transcriptional activity of androgen receptor [2]: enhance the transcriptional activity of androgen receptor
"C[C@]12CCC(=O)C=C1C[C@@H](CCCc1ccc(OCCCC(=O)O)cc1)[C@@H]1[C@@H]2CC[C@@]2(C)[C@H]1CC[C@]2(C)O [Example 18, 17β-hydroxy-17α-methyl-7α-(3-(4-(3-carboxy-propoxy)phenyl)propyl)-4-androsten-3-one]",ND (a FI5 value cannot be calculated because the compound provides less than a 5-fold increase in transcriptional activity even at a concentration of 10000 nM),,IC50 [3]: 664 nM; Residual (%) 5 minutes [4]: 113.7%; Residual (%) 15 minutes [4]: 110.8%
"CN(C)C(=O)CCCCCCC[C@@H]1C[C@H]2CC(=O)CC[C@]2(C)[C@H]2CC[C@]3(C)[C@@H](O)CC[C@H]3[C@H]12 [Comparative Example, 17β-hydroxy-7α-{7-(N,N-dimethylaminocarbonyl)heptyl}-5α-androstan-3-one, reference compound]",,,Residual (%) 5 minutes [4]: 59.4%; Residual (%) 15 minutes [4]: 15.1%
"C[C@]12CCC(=O)C=C1C[C@@H](CCCCc1cccc(OCCCCC(=O)O)c1)[C@@H]1[C@@H]2CC[C@@]2(C)[C@H]1CC[C@]2(C)O [Example 1, 17β-hydroxy-17α-methyl-7α-(4-(3-(4-carboxy-butoxy)phenyl)butyl)-4-androsten-3-one]",ND* (a FI5 value cannot be calculated because the compound provides less than a 5-fold increase in transcriptional activity even at a concentration of 10000 nM),333,
CC12CCC(=O)C=C1CC(CCCc1ccc(CCCCC(=O)O)cc1)C1C2CCC2(C)C1CCC2(C)O (stereo not shown) [Example 22],ND (a FI5 value cannot be calculated because the compound provides less than a 5-fold increase in transcriptional activity even at a concentration of 10000 nM),,IC50 [3]: 717 nM
CC12CCC(=O)C=C1CC(CCCc1cccc(CCCCC(=O)O)c1)C1C2CCC2(C)C1CCC2(C)O (stereo not shown) [Example 24],ND (a FI5 value cannot be calculated because the compound provides less than a 5-fold increase in transcriptional activity even at a concentration of 10000 nM),4040,
CC12CCC(=O)C=C1CC(CCCCc1cccc(OCCCCCC(=O)O)c1)C1C2CCC2(C)C1CCC2(C)O (stereo not shown) [Example 13],ND (a FI5 value cannot be calculated because the compound provides less than a 5-fold increase in transcriptional activity even at a concentration of 10000 nM),529,
CC(=O)O[C@]1(C(C)=O)CC[C@H]2[C@@H]3C=C(Cl)C4=CC(=O)CC[C@]4(C)[C@H]3CC[C@@]21C [chlormadinone acetate],,,prostate weight [6]: increase in their prostate weight
CC12CCC(=O)C=C1CC(CCCc1cccc(OCCCC(=O)O)c1)C1C2CCC2(C)C1CCC2(C)O (stereo not shown) [Example 20],ND (a FI5 value cannot be calculated because the compound provides less than a 5-fold increase in transcriptional activity even at a concentration of 10000 nM),815,
CC12CCC(=O)C=C1CC(CCCCCc1ccc(OCC(=O)O)cc1)C1C2CCC2(C)C1CCC2(C)O (stereo not shown) [Example 7],ND (a FI5 value cannot be calculated because the compound provides less than a 5-fold increase in transcriptional activity even at a concentration of 10000 nM),5140,
CC(=O)O[C@]1(C(C)=O)CC[C@H]2[C@@H]3C=C(Cl)C4=CC(=O)[C@@H]5C[C@@H]5[C@]4(C)[C@H]3CC[C@@]21C [cyproterone acetate],,,prostate weight [6]: increase in their prostate weight
